From patent publication US20260224582A1, “Heterobicyclic amides as inhibitors of CD38” (Cerevance, Inc., priority 2022, published 2026) come the findings set out here.

As usually defined, the fraction unbound is the share of the substance not bound to proteins or other matrix. Read a low fraction unbound as extensive binding.

Series [1] in a line: Tissue binding assay (equilibrium dialysis), brain homogenate. Particulars: mouse brain homogenate, dialysis 4 hours at 37° C., pH 7.4. It is filed as in vitro ADME. The protocol: (§1) Buffer preparation. A basic solution was prepared by dissolving 14.2 g/L Na2HPO4 and 8.77 g/L NaCl in deionized H2O. An acidic solution was prepared by dissolving 15.6 g/L NaH2PO4·2H2O and 8.77 g/L NaCl in deionized H2O. Using the acidic solution, the basic solution was then titrated to pH 7.4±0.1 and stored at 4° C. for up to 1 month. The stop solution was 100% CH3CN containing 200 ng/ml tolbutamide, 200 ng/ml labetalol and 50 ng/ml metformin.
(§2) Test method. Dialysis membrane strips were soaked in ultra-pure water at room temperature for ~1 hour. Each membrane strip containing 2 membranes was separated and soaked in 20:80 EtOH/H2O (v/v) for ~20 min, after which they were ready for use or were stored in the solution at 2-8° C. for up to 1 month. Prior to the experiment, the membrane was rinsed and soaked for 20 min in ultra-pure water. On the day of experiment, brain homogenate was thawed in a water bath at room temperature and incubated at 37° C. for 10 min before use. Test and control compounds were dissolved in DMSO to achieve 10 mM stock solutions. DMSO working solutions were prepared at 400 μM by diluting 10 μL of stock solution. To prepare the time zero (t=0) samples to be used for recovery determination, 50 μL aliquots of loading matrix were transferred in triplicate to the sample collection plate. The samples were immediately matched with opposite blank buffer to obtain a final volume of 100 μL of 1:1 matrix/dialysis buffer (v/v) in each well. 500 μL of stop solution were added to these t=0 samples. They were then stored at 2-8° C. pending further processes along with other post-dialysis samples. To load the dialysis device, an aliquot of 150 μL of the loading matrix was transferred to the donor side of each dialysis well in triplicate, and 150 μL of the dialysis buffer was loaded to the receiver side of the well. The dialysis plate was placed in a humidified incubator at 37° C. with 5% CO2 on a shaking platform that rotated slowly (about 100 rpm) for 4 hours. At the end of the dialysis, aliquots of 50 μL of samples were taken from both the buffer side and the matrix side of the dialysis device. These samples were transferred into new 96-well plates. Each sample was mixed with an equal volume of opposite blank matrix (buffer or matrix) to reach a final volume of 100 μL of 1:1 matrix/dialysis buffer (v/v) in each well. All samples were further processed by adding 500 μL of stop solution containing internal standards. The mixture was vortexed and centrifuged at 4000 rpm for about 20 min. An aliquot of 100 μL of supernatant of all the samples was then removed for LC-MS/MS analysis. The single blank samples were prepared by transferring 50 μL of blank matrix to a 96-well plate and adding 50 μL of blank PBS buffer to each well. Then the matrix-matched samples were further processed by adding 500 μL of stop solution containing internal standards, following the same sample processing method as the dialysis samples.
(§3) Data analysis. The % undiluted unbound, % undiluted bound and % recovery were calculated using the following equations: […]
(§4) where F is the analyte concentration or peak area ratio of analyte/internal standard on the buffer (receiver) side of the membrane; T is the analyte concentration or peak area ratio of analyte/internal standard on the matrix (donor) side of the membrane; To is the analyte concentration or the peak area ratio of analyte/internal standard in the loading matrix sample at time zero; and D is the dilution factor determined as 4 in this assay.
A general note: In equilibrium dialysis free small molecules cross a membrane that holds back macromolecules.

Series [2] is described as follows: Tissue binding assay (equilibrium dialysis), plasma. The settings on record: mouse plasma, dialysis 4 hours at 37° C., pH 7.4. The class given is in vitro ADME. Here is the method: [Worded in the source for another target; this target is reported under the same test.] as §1, §2, §3, §4
Series [3] is described as follows: PK brain permeability after single oral gavage. The class given is in vivo, C57BL/6 mice. Particulars: mice, 10 mg/kg oral, 2 hours post dose; for concentration at 2 h / Kp at 2 h: male, C57BL/6, mouse; for concentration at 2 h: po, 10 mg/kg; for Kp at 2 h: read-out: Kpu, u (unbound partitioning coefficient, Cb,u to Cp,u); for brain permeability (in words): statement on Table 3. Here is the method: The distribution of compounds into the brain in vivo was determined in C57BL/6 mice following single oral (po) gavage administration.
Test compounds were formulated at 1 mg/mL in 0.5% HPMC E4M, 0.2% Tween 80 in water to achieve solutions or homogenous suspensions suitable for po administration. Formulations were administered to 3 male C57BL/6 mice at a volume of 10 mL/kg resulting in a dose level of 10 mg/kg. Blood samples were collected at 1 and 2 hours post dose into tubes containing K2EDTA as anticoagulant, processed to plasma and stored at −60° C. or lower until LC-MS/MS analysis. Brains were harvested 2 hours post dose, rinsed with saline, dried, weighed and homogenised under ice cold conditions. Brain homogenates were stored at −60° C. or lower until LC-MS/MS analysis.
Dose formulation concentrations were verified using a LC-UV or LC-MS/MS method. Test compound concentrations in plasma and brain homogenate were quantitatively determined using LC-MS/MS methods developed in individual matrices against calibration curves with QC samples included and acceptance criteria as per CRO SOPs. Concentrations in brain homogenate were corrected for the dilution factor used to prepare the homogenate to give concentrations in whole brain tissue.
Plasma and brain concentration versus time data were reported and plotted in excel. The brain to plasma ratio at 2 hours post dose was calculated for each animal using the following equation:
Brain: plasma=brain concentration (ng/g) at 2 h/plasma concentration (ng/ml) at 2 h As only unbound test compound is available to exert an effect on the target, unbound plasma (Cp,u) and unbound brain (Cb,u) concentrations were calculated by correcting the total concentrations for the unbound fraction in plasma (fu,p) or brain (fu,b) determined from in vitro plasma protein or brain tissue binding assays using the following equations: […]
The unbound partitioning coefficient (Kpu,u) was then calculated based on the ratio of Cb,u to Cp,u using the following equation: […]
In these studies, mice were orally administrated a 10 mg/kg dose and sacrificed 2 hours post dose and tissue samples (brain homogenate and plasma) were analyzed subsequently as described above.

Setting [4] is: brain, read-out: total brain conc.
Where [5] appears, read: brain, total corrected for unbound fraction in brain, read-out: free brain conc.
[6] abbreviates: plasma, read-out: total plasma conc.
The mark [7] stands for this setting: plasma, total corrected for unbound fraction in plasma, read-out: free plasma conc.

Where two headings read alike, the source gives them in different places.

In the case of `O=C(N[C@H]1CC[C@H](NCC(F)(F)F)CC1)c1nc(-n2ccnc2)nn2cccc12` [Example 29, 2-(1H-imidazol-1-yl)-N-((1r,4r)-4-((2,2,2-trifluoroethyl)amino)cyclohexyl)pyrrolo[2,1-f][1,2,4]triazine-4-carboxamide], the fraction unbound at 4 h in series [1] was 0.064; in series [2] it was 0.044. For the same molecule, the concentration at 2 h in series [3] (setting [4]) turned out to be 4920 nM; in series [3] (setting [5]), 319 nM; in series [3] (setting [6]), 19100 nM; in series [3] (setting [7]), 840 nM. The Kp at 2 h in series [3] (brain) was 0.39. Also, the “brain permeability (in words)” value in series [3] was “good brain permeability”.

As to `O=C(N[C@H]1CC[C@H](NCC(F)(F)F)CC1)c1cn2nccc2c(-n2ccnc2)n1` [Example 21, 4-(1H-imidazol-1-yl)-N-((1r,4r)-4-((2,2,2-trifluoroethyl)amino)cyclohexyl)pyrazolo[1,5-a]pyrazine-6-carboxamide], the fraction unbound at 4 h in series [1] amounted to 0.34; in series [2] it was 0.3. In addition, the concentration at 2 h was determined as 1500 nM in series [3] (setting [4]), 507 nM in series [3] (setting [5]), 8220 nM in series [3] (setting [6]) and 2470 nM in series [3] (setting [7]). The Kp at 2 h in series [3] (brain) is 0.2. For the same molecule, in series [3], the “brain permeability (in words)” value is “good brain permeability”.

As for `O=C(N[C@H]1CC[C@H](N2CC[C@H](F)C2)CC1)c1nc(-n2ccnc2)nn2cccc12` [Example 13, N-((1S,4r)-4-((S)-3-fluoropyrrolidin-1-yl)cyclohexyl)-2-(1H-imidazol-1-yl)pyrrolo[2,1-f][1,2,4]triazine-4-carboxamide], the fraction unbound at 4 h in series [1] is 0.056; in series [2] it was 0.22. The concentration at 2 h stood at 3380 nM in series [3] (setting [4]), 189 nM in series [3] (setting [5]), 3660 nM in series [3] (setting [6]) and 809 nM in series [3] (setting [7]). In series [3] (brain), the Kp at 2 h turned out to be 0.23. Also, the “brain permeability (in words)” value in series [3] is “good brain permeability”.

As to `O=C(N[C@H]1CC[C@H](NCC(F)(F)F)CC1)c1nc(-n2ccnc2)nc2ncccc12` [Example 4, 2-(1H-imidazol-1-yl)-N-((1r,4r)-4-((2,2,2-trifluoroethyl)amino)cyclohexyl)pyrido[2,3-d]pyrimidine-4-carboxamide], the fraction unbound at 4 h in series [1] was found to be 0.41; in series [2], 0.4. The concentration at 2 h in series [3] (setting [4]) was 572 nM; in series [3] (setting [5]), 236 nM; in series [3] (setting [6]), 6310 nM; in series [3] (setting [7]), 2540 nM. In series [3] (brain), the Kp at 2 h is 0.09. In addition, the “brain permeability (in words)” value in series [3] is given as “good brain permeability”.

Consider `O=C(N[C@H]1CC[C@H](N2CCC(F)(F)C2)CC1)c1cn2ccnc2c(-n2ccnc2)n1` [Example 41, N-((1r,4r)-4-(3,3-difluoropyrrolidin-1-yl)cyclohexyl)-8-(1H-imidazol-1-yl) imidazo[1,2-a]pyrazine-6-carboxamide], for which the fraction unbound at 4 h in series [1] was determined as 0.15; in series [2], 0.2. The concentration at 2 h worked out at 1580 nM in series [3] (setting [4]), 241 nM in series [3] (setting [5]), 10600 nM in series [3] (setting [6]) and 2160 nM in series [3] (setting [7]). Besides, the Kp at 2 h in series [3] (brain) stood at 0.11. The “brain permeability (in words)” value in series [3] is given as “good brain permeability”.
